# Laboratory results from US20210128492A1, “COMPOSITION FOR PREVENTING AND/OR IMPROVING BRAIN DYSFUNCTION COMPRISING A LUTEIN OR SALT THEREOF AND A PLANT PRODUCT OF THE GENUS TRAPA” (Santen Pharmaceutical Co., Ltd., priority 2017, published 2021).
# Key:
# [1] = tested on: Slc:ddY (SPF) mice injected with β-amyloid solution; assay: Y-maze test (spontaneous alternation test) in mice injected with β-amyloid solution; type: in vivo, mouse
# Protocol: Slc:ddY (SPF:Specific-Pathogen-Free) mice (Supply Resource: Japan SLC, Inc.) received the administration a sample (Vehicle control, Trapa japonica extract, Lutein, or Trapa japonica extract+Lutein) and then the injection of β-amyloid solution. For the mice, Y-maze test was performed to evaluate the improvement effects of Trapa japonica extract, Lutein, and a combination thereof on learning disorder. The test was performed twice. The Y-maze test was performed according to Takayoshi MAMIYA et al., “Effects of Pre-Germinated Brown Rice on β-Amyloid Protein-Induced Learning and Memory Deficits in Mice”, Biol. Pharm. Bull., July 2004, 27(7), 1041-1045 to evaluate the effects.
# Male, 5-week-old, Slc:ddY (SPF) mouse(Body weight: 23˜28 g: n=32)
# According to the following procedure, model mice were made using the above mice: Each mouse was anesthetized with the intraperitoneal administration (dosing volume: 10 mL/kg) of pentobarbital sodium (TOKYO CHEMICAL INDUSTRY CO., LTD.) at 40 mg/kg. After anesthesia, levobupivacaine hydrochloride (POPSCAINE® 0.25% injection, Maruishi Pharmaceutical Co., Ltd.) (0.1 mL) was administered subcutaneously into the scalp of the mouse. The hair on the top of the mouse was trimmed, and the head part was fixed to a brain stereotactic device. The scalp of the mouse was sterilized with iodine tincture, and then the head part was incised to expose the skull and the connective tissue on the skull was removed with a cotton swab. The treated skull was dried with a blower to find the position of bregma more easily. A hole for inserting a stainless steel pipe was drilled in the skull at 1 mm to the right and 0.2 mm behind bregma with a dental drill. The stainless steel pipe connected to a silicon tube with an outside diameter of 0.5 mm and a micro syringe was perpendicularly inserted to a depth of 2.5 mm from the bone surface. 3 μL of a β-amyloid solution ([…]) was injected (in the sham operation group, 3 μL of water for injection was injected) into the cerebral ventricle with a microsyringe pump for 3 minutes. After the injection, the inserted stainless steel pipe was allowed to stand for 3 minutes, and then the pipe was slowly removed. After removing the stainless steel pipe, the cranial was closed with a non-absorbable myelostatic agent (NESTOP®, Alfresa Pharma Co., Ltd.) and the scalp was sutured. The mouse were removed from the brain stereotactic device and returned to the breeding cage.
# The β-amyloid solution was prepared by dissolving β-amyloid (Amyloid-β Protein(25-35); Polypeptide Laboratories) to 2 mM with water for injection and incubating the solution in the constant temperature storage at 37° C. for 4 days. Water for injection was used as the vehicle for sham operation. […]
# [2] = tested on: pyramidal cell layer of the hippocampus CA1 region; assay: Histopathological assessment of KB stained brain specimens from the mice of Test Example 1; type: in vivo, mouse
# Protocol: The brain was isolated from the mice in each group of Test Example 1 to prepare histopathological specimens, and the histopathological assessment of the prepared histopathological specimens was performed. Such test was performed twice. Each mouse in each group of Test Example 1 was anesthetized with an isoflurane solution and the chest of the mouse was opened to expose the heart. The exposed heart was cut into the auricle thereof. A polypropylene disposable syringe with an injection needle was used, the injection needle thereof was inserted from left ventricle and about 30 mL of ice-cooled saline was injected into the heart, and then the heart was perfused with about 30 mL of 10 vol % formalin neutral buffer solution. […] The isolated brain was embedded in paraffin according to any conventional method, one histopathological section was discontinuously prepared at around bregma-1.70 mm and around bregma-2.80 mm, respectively, and then Klüver-Barrera stained (KB stained) tissue specimens were prepared from each section. The cut brain was stored in 10 vol % formalin neutral buffer solution. • 1) For each specimen, the images of pyramidal cell layers of the hippocampus CA1 region closest to bregma-1.70 mm and bregma-2.80 mm from the optical microscope image (George Paxinos and Keith B. J. Franklin. (2013). The Mouse Brain in stereotaxic coordinates.
# [3] = 8 minutes, about 1 hour after administration on the 14th day, gavage once per day for 14 days (Trapa japonica extract 2 mg/kg, Lutein 0.4 mg/kg, combination 2 + 0.4 mg/kg), β-amyloid on day 8, average of n=10
# [4] = β-amyloid model mice, 14 days gavage
smiles,measurement,setting,value
"CC1=C[C@H](O)CC(C)(C)[C@H]1/C=C/C(C)=C/C=C/C(C)=C/C=C/C=C(C)/C=C/C=C(C)/C=C/C1=C(C)C[C@@H](O)CC1(C)C [Lutein, (3R,3′R,6′R)-β,ε-carotene-3,3′-diol]",Spontaneous alternation rate,[1]; [3],59.3%
same,The number of spontaneous alternation,[1]; [3],21.2 Count
same,The total number of entries,[1]; [3],37.0 Count
same,Spontaneous alternation rate as compared to the vehicle control group (in words),[1]; [4],not improved
same,Area of pyramidal cell layer,"[2]; hippocampus CA1 region, KB stained specimens, mice of Test Example 1 (gavage 14 days; Trapa japonica extract 2 mg/kg, Lutein 0.4 mg/kg, combination 2 + 0.4 mg/kg), average of n=2",224874 μm^2
same,Area of pyramidal cell layer of the hippocampus CA1 region as compared to the vehicle control group (in words),[2]; [4],increased
